The molecules below were run on CCRF-CEM (assay: Growth inhibition of human CCRF-CEM cells assessed as cell growth at 10 uM incubated for 48 hrs by sulforhodamine B assay relative to control). Settings: read-out: Activity.
Format: functional

SMILES	growth at 10 µM [%]
O=C1CC(c2cc3ccc4ccccc4c3[nH]c2=O)Nc2ccccc21 (stereo not drawn)	101

What follows are molecules tested on A549 (assay: Growth inhibition of human A549/ATCC cells assessed as cell growth at 10 uM incubated for 48 hrs by sulforhodamine B assay relative to control). Settings: A549, 48 h, read-out: Activity.
Format: functional

SMILES	growth at 10 µM [%]
O=C1CC(c2cc3ccc4ccccc4c3[nH]c2=O)Nc2ccccc21 (stereo not drawn)	92.4

Each molecule was assayed on HOP-62 (assay: Growth inhibition of human HOP62 cells assessed as cell growth at 10 uM incubated for 48 hrs by sulforhodamine B assay relative to control). Settings: HOP-62, 48 h, read-out: Activity.
Format: functional

SMILES	growth at 10 µM [%]
O=C1CC(c2cc3ccc4ccccc4c3[nH]c2=O)Nc2ccccc21 (stereo not drawn)	91.1

The molecules below were run on HOP-92 (assay: Growth inhibition of human HOP92 cells assessed as cell growth at 10 uM incubated for 48 hrs by sulforhodamine B assay relative to control). Settings: HOP-92, 48 h, read-out: Activity.
Format: functional

SMILES	growth at 10 µM [%]
O=C1CC(c2cc3ccc4ccccc4c3[nH]c2=O)Nc2ccccc21 (stereo not drawn)	104

Each molecule was assayed on NCI-H226 (assay: Growth inhibition of human NCI-H226 cells assessed as cell growth at 10 uM incubated for 48 hrs by sulforhodamine B assay relative to control). Settings: NCI-H226, 48 h, read-out: Activity.
Format: functional

SMILES	growth at 10 µM [%]
O=C1CC(c2cc3ccc4ccccc4c3[nH]c2=O)Nc2ccccc21 (stereo not drawn)	92.5

The molecules below were run on NCI-H23 (assay: Growth inhibition of human NCI-H23 cells assessed as cell growth at 10 uM incubated for 48 hrs by sulforhodamine B assay relative to control). Settings: NCI-H23, 48 h, read-out: Activity.
Format: functional

SMILES	growth at 10 µM [%]
O=C1CC(c2cc3ccc4ccccc4c3[nH]c2=O)Nc2ccccc21 (stereo not drawn)	93.6

Each molecule was assayed on NCI-H322M (assay: Growth inhibition of human NCI-H322M cells assessed as cell growth at 10 uM incubated for 48 hrs by sulforhodamine B assay relative to control). Settings: read-out: Activity.
Format: functional

SMILES	growth at 10 µM [%]
O=C1CC(c2cc3ccc4ccccc4c3[nH]c2=O)Nc2ccccc21 (stereo not drawn)	108

These molecules were tested on NCI-H522 (assay: Growth inhibition of human NCI-H522 cells assessed as cell growth at 10 uM incubated for 48 hrs by sulforhodamine B assay relative to control). Settings: NCI-H522, 48 h, read-out: Activity.
Format: functional

SMILES	growth at 10 µM [%]
O=C1CC(c2cc3ccc4ccccc4c3[nH]c2=O)Nc2ccccc21 (stereo not drawn)	89.2

These molecules were tested on COLO 205 (assay: Growth inhibition of human COLO205 cells assessed as cell growth at 10 uM incubated for 48 hrs by sulforhodamine B assay relative to control). Settings: COLO 205, 48 h, read-out: Activity.
Format: functional

SMILES	growth at 10 µM [%]
O=C1CC(c2cc3ccc4ccccc4c3[nH]c2=O)Nc2ccccc21 (stereo not drawn)	86.7

What follows are molecules tested on HCT-116 (assay: Growth inhibition of human HCT116 cells assessed as cell growth at 10 uM incubated for 48 hrs by sulforhodamine B assay relative to control). Settings: HCT-116, 48 h, read-out: Activity.
Format: functional

SMILES	growth at 10 µM [%]
O=C1CC(c2cc3ccc4ccccc4c3[nH]c2=O)Nc2ccccc21 (stereo not drawn)	93

Each molecule was assayed on HT-29 (assay: Growth inhibition of human HT-29 cells assessed as cell growth at 10 uM incubated for 48 hrs by sulforhodamine B assay relative to control). Settings: HT-29, 48 h, read-out: Activity.
Format: functional

SMILES	growth at 10 µM [%]
O=C1CC(c2cc3ccc4ccccc4c3[nH]c2=O)Nc2ccccc21 (stereo not drawn)	99.1

Each molecule was assayed on KM12 (assay: Growth inhibition of human KM12 cells assessed as cell growth at 10 uM incubated for 48 hrs by sulforhodamine B assay relative to control). Settings: KM12, 48 h, read-out: Activity.
Format: functional

SMILES	growth at 10 µM [%]
O=C1CC(c2cc3ccc4ccccc4c3[nH]c2=O)Nc2ccccc21 (stereo not drawn)	94.5

What follows are molecules tested on SW-620 (assay: Growth inhibition of human SW620 cells assessed as cell growth at 10 uM incubated for 48 hrs by sulforhodamine B assay relative to control). Settings: SW-620, 48 h, read-out: Activity.
Format: functional

SMILES	growth at 10 µM [%]
O=C1CC(c2cc3ccc4ccccc4c3[nH]c2=O)Nc2ccccc21 (stereo not drawn)	96

What follows are molecules tested on SF-539 (assay: Growth inhibition of human SF539 cells assessed as cell growth at 10 uM incubated for 48 hrs by sulforhodamine B assay relative to control). Settings: SF-539, 48 h, read-out: Activity.
Format: functional

SMILES	growth at 10 µM [%]
O=C1CC(c2cc3ccc4ccccc4c3[nH]c2=O)Nc2ccccc21 (stereo not drawn)	82.2

The molecules below were run on SNB-19 (assay: Growth inhibition of human SNB19 cells assessed as cell growth at 10 uM incubated for 48 hrs by sulforhodamine B assay relative to control). Settings: SNB-19, 48 h, read-out: Activity.
Format: functional

SMILES	growth at 10 µM [%]
O=C1CC(c2cc3ccc4ccccc4c3[nH]c2=O)Nc2ccccc21 (stereo not drawn)	92.5

These molecules were tested on U-251 (assay: Growth inhibition of human U251 cells assessed as cell growth at 10 uM incubated for 48 hrs by sulforhodamine B assay relative to control). Settings: U-251, 48 h, read-out: Activity.
Format: functional

SMILES	growth at 10 µM [%]
O=C1CC(c2cc3ccc4ccccc4c3[nH]c2=O)Nc2ccccc21 (stereo not drawn)	87.6

What follows are molecules tested on Malme-3M (assay: Growth inhibition of human MALME-3M cells assessed as cell growth at 10 uM incubated for 48 hrs by sulforhodamine B assay relative to control). Settings: read-out: Activity.
Format: functional

SMILES	growth at 10 µM [%]
O=C1CC(c2cc3ccc4ccccc4c3[nH]c2=O)Nc2ccccc21 (stereo not drawn)	84.7

Each molecule was assayed on SK-MEL-28 (assay: Growth inhibition of human SK-MEL-28 cells assessed as cell growth at 10 uM incubated for 48 hrs by sulforhodamine B assay relative to control). Settings: SK-MEL-28, 48 h, read-out: Activity.
Format: functional

SMILES	growth at 10 µM [%]
O=C1CC(c2cc3ccc4ccccc4c3[nH]c2=O)Nc2ccccc21 (stereo not drawn)	106

The molecules below were run on UACC-62 (assay: Growth inhibition of human UACC62 cells assessed as cell growth at 10 uM incubated for 48 hrs by sulforhodamine B assay relative to control). Settings: UACC-62, 48 h, read-out: Activity.
Format: functional

SMILES	growth at 10 µM [%]
O=C1CC(c2cc3ccc4ccccc4c3[nH]c2=O)Nc2ccccc21 (stereo not drawn)	101

Each molecule was assayed on OVCAR-3 (assay: Growth inhibition of human OVCAR3 cells assessed as cell growth at 10 uM incubated for 48 hrs by sulforhodamine B assay relative to control). Settings: OVCAR-3, 48 h, read-out: Activity.
Format: functional

SMILES	growth at 10 µM [%]
O=C1CC(c2cc3ccc4ccccc4c3[nH]c2=O)Nc2ccccc21 (stereo not drawn)	115

The molecules below were run on OVCAR-4 (assay: Growth inhibition of human OVCAR4 cells assessed as cell growth at 10 uM incubated for 48 hrs by sulforhodamine B assay relative to control). Settings: OVCAR-4, 48 h, read-out: Activity.
Format: functional

SMILES	growth at 10 µM [%]
O=C1CC(c2cc3ccc4ccccc4c3[nH]c2=O)Nc2ccccc21 (stereo not drawn)	87.8

These molecules were tested on OVCAR-5 (assay: Growth inhibition of human OVCAR5 cells assessed as cell growth at 10 uM incubated for 48 hrs by sulforhodamine B assay relative to control). Settings: OVCAR-5, 48 h, read-out: Activity.
Format: functional

SMILES	growth at 10 µM [%]
O=C1CC(c2cc3ccc4ccccc4c3[nH]c2=O)Nc2ccccc21 (stereo not drawn)	114

What follows are molecules tested on OVCAR-8 (assay: Growth inhibition of human OVCAR8 cells assessed as cell growth at 10 uM incubated for 48 hrs by sulforhodamine B assay relative to control). Settings: OVCAR-8, 48 h, read-out: Activity.
Format: functional

SMILES	growth at 10 µM [%]
O=C1CC(c2cc3ccc4ccccc4c3[nH]c2=O)Nc2ccccc21 (stereo not drawn)	110

The molecules below were run on NCI/ADR-RES (assay: Growth inhibition of human NCI/ADR-RES cells assessed as cell growth at 10 uM incubated for 48 hrs by sulforhodamine B assay relative to control). Settings: read-out: Activity.
Format: functional

SMILES	growth at 10 µM [%]
O=C1CC(c2cc3ccc4ccccc4c3[nH]c2=O)Nc2ccccc21 (stereo not drawn)	108

What follows are molecules tested on SK-OV-3 (assay: Growth inhibition of human SKOV3 cells assessed as cell growth at 10 uM incubated for 48 hrs by sulforhodamine B assay relative to control). Settings: SK-OV-3, 48 h, read-out: Activity.
Format: functional

SMILES	growth at 10 µM [%]
O=C1CC(c2cc3ccc4ccccc4c3[nH]c2=O)Nc2ccccc21 (stereo not drawn)	98.8

The molecules below were run on A498 (assay: Growth inhibition of human A498 cells assessed as cell growth at 10 uM incubated for 48 hrs by sulforhodamine B assay relative to control). Settings: A498, 48 h, read-out: Activity.
Format: functional

SMILES	growth at 10 µM [%]
O=C1CC(c2cc3ccc4ccccc4c3[nH]c2=O)Nc2ccccc21 (stereo not drawn)	115

Each molecule was assayed on ACHN (assay: Growth inhibition of human ACHN cells assessed as cell growth at 10 uM incubated for 48 hrs by sulforhodamine B assay relative to control). Settings: read-out: Activity.
Format: functional

SMILES	growth at 10 µM [%]
O=C1CC(c2cc3ccc4ccccc4c3[nH]c2=O)Nc2ccccc21 (stereo not drawn)	106

Each molecule was assayed on RXF 393 (assay: Growth inhibition of human RXF393 cells assessed as cell growth at 10 uM incubated for 48 hrs by sulforhodamine B assay relative to control). Settings: RXF 393, 48 h, read-out: Activity.
Format: functional

SMILES	growth at 10 µM [%]
O=C1CC(c2cc3ccc4ccccc4c3[nH]c2=O)Nc2ccccc21 (stereo not drawn)	110

What follows are molecules tested on SN12C (assay: Growth inhibition of human SN12C cells assessed as cell growth at 10 uM incubated for 48 hrs by sulforhodamine B assay relative to control). Settings: read-out: Activity.
Format: functional

SMILES	growth at 10 µM [%]
O=C1CC(c2cc3ccc4ccccc4c3[nH]c2=O)Nc2ccccc21 (stereo not drawn)	90.7

The molecules below were run on TK-10 (assay: Growth inhibition of human TK10 cells assessed as cell growth at 10 uM incubated for 48 hrs by sulforhodamine B assay relative to control). Settings: TK-10, 48 h, read-out: Activity.
Format: functional

SMILES	growth at 10 µM [%]
O=C1CC(c2cc3ccc4ccccc4c3[nH]c2=O)Nc2ccccc21 (stereo not drawn)	116

These molecules were tested on UO-31 (assay: Growth inhibition of human UO31 cells assessed as cell growth at 10 uM incubated for 48 hrs by sulforhodamine B assay relative to control). Settings: UO-31, 48 h, read-out: Activity.
Format: functional

SMILES	growth at 10 µM [%]
O=C1CC(c2cc3ccc4ccccc4c3[nH]c2=O)Nc2ccccc21 (stereo not drawn)	95.4

The molecules below were run on T47D (assay: Growth inhibition of human T47D cells assessed as cell growth at 10 uM incubated for 48 hrs by sulforhodamine B assay relative to control). Settings: read-out: Activity.
Format: functional

SMILES	growth at 10 µM [%]
O=C1CC(c2cc3ccc4ccccc4c3[nH]c2=O)Nc2ccccc21 (stereo not drawn)	93.1

The molecules below were run on MDA-MB-468 (assay: Growth inhibition of human MDA-MB-468 cells assessed as cell growth at 10 uM incubated for 48 hrs by sulforhodamine B assay relative to control). Settings: MDA-MB-468, 48 h, read-out: Activity.
Format: functional

SMILES	growth at 10 µM [%]
O=C1CC(c2cc3ccc4ccccc4c3[nH]c2=O)Nc2ccccc21 (stereo not drawn)	91.2

— ChEMBL document CHEMBL4138146, “A Schmidt rearrangement-mediated synthesis of novel tetrahydro-benzo[1,4]diazepin-5-ones as potential anticancer and antiprotozoal agents” (Eur J Med Chem, 2017)
